Assay results as given in US5846742A, “Selecting substances for treating glucocorticoid-mediated inflammation or immune diseases using Tripterygium wilfordii Hook F extracts” (Board of Regents, The University of Texas System, priority 1997, dated 1998).

Legend:
[1] = tested on: PGE2 production by human monocytes (COX-2); test: Endotoxin induced PGE2 production by monocytes (COX-2); assay type: cell-based; details: LPS 10 μg/ml, 18 hours, FIG. 29
Protocol: After 18 hours of incubation, cell-free supernatants were collected and assayed for PGE2 content with a radioimmunoassay kit (Amersham), as described by the manufacturer. Data represent the mean of two replicate determinations of two separate experiments. […] Human monocytes produce prostaglandinE2 (PGE2) when stimulated with bacterial endotoxin.

T cells [2] = test: PHA-induced T cell proliferation, wilforonide (924); assay type: cell-based, human; details: at the level of ngs
Text: The molecular groups responsible for the immune suppressive function of these compounds are unknown, however, the core structure of diterpenoids which may be related to their activity consists of an α-β-unsaturated 5 element lactone which can be identified by Kedde reagents. HPLC was used to fractionate the ethyl acetate extract of TwHF and the Kedde reagents were employed to trace the fractions. Then, the effect of selected fractions on the in vitro IL-2 production and [^3 H]-thymidine incorporation by PHA-activated T cells was determined. Fractions that inhibit these T cell functions were selected and the chromatographic pattern was identified with HPLC. One fraction was further purified with HPLC and crystallized repeatedly; a pure, crystallized compound was obtained and designated "924".
[^3 H]-thymidine was added for the last 14 hours of culture. Each concentration was run in quadruplicate (4 times) and the results for each concentration averaged to provide a mean. The mean cpm×10^3 values were combined and expressed as a percent of T cell inhibition.
or absence of the indicated concentrations of wilforonide for 3 days.
[^3 H]-Thymidine was added for the last 14 hours. Data are from 4
independent experiments.

[3] = tested on: human GR (COS-7 cells, MMTV-luciferase); test: GR mediated MMTV-luciferase gene activation; assay type: cell-based; details: for GR-mediated target gene activation: purified TwHF compounds
Protocol: Cell transfections and assays of GR mediated gene activation. COS-7 cells were maintained in culture in DMEM-10% bovine calf serum. […] Cells were plated at 10^6 cells per 10 cm plate. Twenty-four hours later, the cells were transfected with 500 ng pRShGrα, a GR expression vector (obtained from the Salk Institute, La Jolla, Calif.) and 10 μg of pMMTV-luciferase, a synthetic reporter gene. However, other expression vectors and synthetic reporter genes available to those of skill in the art may be used for transfection. The vector pMMTV-luciferase contains the luciferase gene under regulatory control of glucocorticoid-inducible elements in the MMTV-long terminal repeat. Cells were transfected using the calcium-phosphate precipitation technique (mammalian transfection kit, Stratagene, La Jolla, Calif.). […] Twenty-four hours later, the cells were washed, harvested, and lysates prepared by three cycles of freeze/thawing. The lysates were cleared by centrifugation at 12,000×g for 5 minutes; aliquots were assayed for protein content and equal amounts of proteins were used for luciferase assays.
COS-7 cells were transfected with a human GR expression vector and the MMTV-luciferase reporter gene construct. A parallel set of plates was transfected with the constitutively active RSV-luciferase construct. […] Cells were lysed after 24 hours and assayed for luciferase activity.

IDH4 cells = assay type: cell-based, human; details: 72 hours, FIG. 25
Protocol: IDH4 cells, that express endogenous glucocorticoid receptors, were produced by transfecting human fibroblasts with a plasmid containing the MMTV-long terminal repeat driving the SV40 large T antigen. Since extended growth of these cells is dependent on expression of the large T antigen, these cells require exogenous glucocorticoid to maintain proliferation.
[^3 H]-Thymidine was present for the last 16 h. Data represent the mean k inhibition of [^3 H]-thymidine incorporation of three replicate determinations of three separate experiments.

Fibroblasts = assay type: cell-based, human; details: triptolide 10 ng/ml
Protocol: The cells were assayed for cell viability by using a cytoflowmeter (FACSCAN) after the cells were stained with propidium iodine.

T cells [4] = test: PHA-induced T cell DNA synthesis, triptolide; assay type: cell-based, human; details: for PHA-induced T cell DNA synthesis (3H-thymidine incorporation): control 93,400
B cells = test: SA-induced B cell DNA synthesis / Ig production, triptolide; assay type: cell-based, human; details: for SA-induced B cell DNA synthesis (3H-thymidine incorporation): control 7,900
Text: Other components of Tripterygium wilfordii Hook F include: […]

lymph cells = details: concanavalin A; cited from earlier work
mouse spleen cells = details: high concentrations; cited from earlier work

Row | Compound | Endotoxin induced PGE2 production / COX-2 induction [1] | Immunosuppressive action (T cells [2]) | GR-mediated target gene activation [3] | Dexamethasone dependent growth of IDH4 cells (IDH4 cells) | Lymph cell proliferation (lymph cells) | other results
1 | CC#C[C@]1(O)CC[C@H]2[C@@H]3CCC4=CC(=O)CCC4=C3[C@@H](c3ccc(N(C)C)cc3)C[C@@]21C [RU486, reference compound] | inhibits endotoxin-induced PGE2 production by human peripheral blood monocytes, however, it is not as effective as the TwHF extract at lower concentrations |  |  |  |  | 
2 | CC(C)[C@]12O[C@H]1[C@@H]1O[C@]13[C@]1(O[C@H]1C[C@H]1C4=C(C(=O)OC4)[C@@H](O)C[C@@]13C)[C@@H]2O [Tripdiolide, tripdiolide] | inhibited by the extract of TwHF and its purified immunosuppressive component, tripdiolide | potent immunosuppressive action | inhibited target gene activation by GR | inhibited dexamethasone dependent growth of IDH4 cells in a concentration dependent manner |  | 
3 | CC(C)[C@]12O[C@H]1[C@@H]1O[C@]13[C@]1(O[C@H]1C[C@H]1C4=C(CC[C@@]13C)C(=O)OC4)[C@@H]2O [Triptolide, triptolide] |  | potent immunosuppressive action | inhibited target gene activation by GR |  | inhibit the proliferation of lymph cells induced by concanavalin A | Toxicity to fibroblasts (Fibroblasts): toxic to fibroblasts; PHA-induced T cell DNA synthesis (3H-thymidine incorporation) (T cells [4]; 0.1 ng/ml): 24,200 CPM; PHA-induced T cell DNA synthesis (3H-thymidine incorporation) (T cells [4]; 1.0 ng/ml): 100 CPM; T lymphocyte proliferation (T cells [4]; 0.1-1.0 ng/ml): inhibited proliferation of both T and B lymphocytes profoundly; SA-induced B cell DNA synthesis (3H-thymidine incorporation) (B cells; 0.1 ng/ml): 2,000 CPM; SA-induced B cell DNA synthesis (3H-thymidine incorporation) (B cells; 1.0 ng/ml): 100 CPM; B lymphocyte proliferation (B cells; 0.1-1.0 ng/ml): inhibited proliferation of both T and B lymphocytes profoundly; Immunoglobulin production, mitogen stimulated B lymphocytes (B cells; in vitro): inhibited the in vitro production of immunoglobulin from mitogen stimulated human B lymphocytes at comparably small concentrations; Lymphocyte proliferation and IL-2 production (mouse spleen cells): suppress B and T lymphocyte proliferation and interleukin-2 production by mouse spleen cells
4 | CC(C)[C@]12O[C@H]1[C@@H]1O[C@@]13[C@@]1(C)CCC4=C(COC4=O)[C@@H]1C[C@@H]1O[C@@]13C2=O [Triptonide, triptonide, reference compound] |  |  |  |  | inhibit the proliferation of lymph cells induced by concanavalin A | 
5 | CC(C)c1ccc2c(c1O)CC[C@H]1C3=C(CC[C@]21C)C(=O)OC3 [Triptophenolide, triptophenolide] |  |  | far less potent | less active and its activity was not generally correlated with dosage |  | Immunosuppressive activity relative to triptolide or tripdiolide [3]: much less immunosuppressive than triptolide or tripdiolide
